Reference: patent publication US8093273B2, “Flavanoids and isoflavanoids for the prevention and treatment of cardiovascular diseases” (Resverlogix Corp., priority 2004, dated 2012)
Converted amounts (≈) assume the structure as drawn. Like-named read-outs stand apart in the source and are kept apart here. One block for each molecule: values may come before it.

Key:
human ApoA-I promoter [1] = test: Kinetics of ApoA-I promoter induction in Caco-2 cells transfected with pAI.474-Luc; type: cell-based; settings: time points from 4 to 72 hours
Protocol: Accordingly, the kinetics of induction of the ApoA-I promoter were assessed.
Caco-2 cells transfected with pAI.474-Luc were treated with compounds of the invention at selected time points varying from 4 to 72 hours. This construct pAI.474-Luc contained the human ApoA-I promoter fused to the reporter gene, firefly luciferase (Luc).
Further, maximal stimulation appeared following 48 hour exposure. […] Maximal stimulation appeared following 48 hour exposure to the compound.

human ApoA-I promoter [2] = test: ApoA-I promoter induction in HepG2 liver cells (pAI.474-Luc luciferase reporter); type: cell-based; settings: average values at 15 μM, 48 hours incubation
Outline: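 HepG2 stably transfected with pAI.474-Luc, starved 24 h in MEM + 0.5% FBS, then treated with compounds at final 0–100 μM for 48 h. Luciferase activity in lysates, normalized to Bradford protein.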

[3] = Solubility analysis in PBS (HPLC-UV); type: physicochemical; settings: aqueous buffer, thermodynamic from solid; 1 mg in 1 mL PBS, sonicated 1 hour, 25° C. for 3 hrs
Protocol: Samples were then centrifuged at 14,000 rpm for 6 minutes at room temperature. The supernatant was diluted with acetonitrile and was removed for analysis. Analysis was performed using HPLC-UV with 7-point standard curve to determine the concentration. The average concentration calculated is regarded as the solubility (μM).

Caco-2 permeability = type: in vitro ADME, human; settings: human
Source text: (§1) The Caco-2 cell drug transport model is widely used for screening compounds in drug discovery to assess intestinal transport and predict absorption rates.

hApoA-I transgenic mice = test: hApoA-I transgenic mice, oral gavage for 14 days; type: in vivo
Source text: To test whether the efficacy of compounds of the invention observed in vitro extended to an in vivo model, transgenic mice carrying multiple copies of the human ApoA-I gene (C57BI/6-tgn(apoa1)1 rub, Jackson Laboratory, Bar Harbor, Me.) were exposed to representative compounds of the invention. The exogenous human ApoA-I gene in these mice enables them to express the human ApoA-I protein under the control of this promoter.
Seven to eight week old male mice, transgenic for human ApoA-I were housed five per cage (10″×20″×8″ with aspen chip bedding) with pelleted Rodent chow [Purina 5001] and water available at all times. After an acclimation period of 1 week, animals were individually identified by numbering on tail and weighed. Mice were pre bled via the retro-orbital plexus, and 150 μl of blood was collected in 1.5 ml Eppendorf tube containing 1 μl of heparin and chilled on ice. Plasma was collected after centrifuging the whole blood at 14000 rpm [TOMY high speed micro-refrigerated centrifuge NTX-150] for 10 minutes at 4° C. and frozen at −80° C. Plasma was analyzed for: human ApoA-I by a human ApoA-I enzyme-linked Immunoassay [Direct Sandwich ELISA Calbiochem Cat#178422, Calbiochem Cat#178452, lot #B9076, Calbiochem Cat #178470 conjugated to Horse Radish Peroxidase (Cedarlane Cat#80220)]; total cholesterol [Ponte scientific reagents: # C7509-STD, #L7580-18, # C7510]; and triglyceride [Pointe Scientific Reagents: # 7532-STD, # L7580-18, #7532]. All samples were measured in triplicates and expressed as mg/dl. Mice were grouped based on the above plasma parameters and having an average body weight of 25 gm.
Two days following pre-bleed, mice were dosed by oral gavage daily for 14 days using a 20 gauge, 11/2″ curved disposable feeding needle [Popper & Sons]; when BID, mice were gavaged morning and afternoon (8 am and 5 pm); when SID mice were gavaged in morning (8 am). Compounds were prepared each day in vehicle. Test article(s), a positive control fenofibrate, and vehicle were dosed at volume of 5 mL/kg of body weight as a suspension (0.1 mL/20 g mouse). Fenofibrate was obtained commercially [SIGMA #F 6020]. Mice weights were recorded on day 1, 4, 7, 10, 12, and 15. On day 15, mice were weighed and fasted for 4 hours, sacrificed by inhalation of CO2 and blood was obtained via cardiac puncture (0.7-1.0 ml). Plasma was collected and frozen at −80° C. Samples were assayed for ApoA-I, total cholesterol, triglyceride and HDL-C by HPLC [Polaris 200 with an auto sampler Prostar 410 from Varian on a Superose 6 10/30 column from Amersham]. Samples were sent for NMR analysis [LipoScience] to identify particle size and subclass for lipoproteins. During necropsy, liver, brown fat, and the whole of small and large intestines were collected, cleaned with cold PBS and frozen at −80° C. for further analysis of compound levels. Variation between studies, in ApoA-I changes, was observed. Therefore, a relative comparison between individual(s) in the study groups was used.
4′-hydroxyflavone (10 mg/kg of body weight), 4-(4-oxo-4H-chromen-2-yl)phenyl nicotinate (Example 71) (10 mg/kg of body weight) and fenofibrate (100 mg/kg of body weight) were BID administered to hApoA-I transgenic mice daily for fourteen days by oral gavage in 0.5% Methylcellulose (w/v)/1% Tween 80 (w/v). Plasma was assayed for ApoA-I (FIG. 3A), HDL cholesterol and total cholesterol (FIG. 3B) and percent weight gain (FIG. 3C).
4′-hydroxyflavone (3 mg/kg of body weight), 4′-hydroxyflavone (10 mg/kg of body weight), 4′-hydroxyflavone (30 mg/kg of body weight), 2-(4-Hydroxy-phenyl)-pyrano[2,3-b]pyridin-4-one (10 mg/kg of body weight), and fenofibrate (100 mg/kg of body weight) were BID administered to hApoA-I transgenic mice daily for fourteen days by oral gavage in 0.5% methylcellulose (w/v)/1% Tween 80 (w/v). In this experiment plasma was assayed for ApoA-I. […]

human ApoA-I promoter [4] = test: ApoA-I promoter induction in Caco-2 intestinal cells (pAI.474-Luc luciferase reporter); type: cell-based; settings: Caco-2 cells, 15 μM, 48 hours incubation, luciferase activity vs control samples
Outline: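 Caco-2 cells stably carrying the human ApoA-I promoter–firefly luciferase construct (pAI.474-Luc) were starved 24 h in 0.5% FBS medium, then exposed to compound at 0 to 100 μM final for 48 h at 37° C. Luciferase activity in lysates was normalized to Bradford protein and compared with solvent-only and untreated controls.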

Caco-2 cells = test: Caco-2 permeability; type: in vitro ADME, human; settings: in vitro Caco-2 intestinal transport model
Source text: as §1

ApoA-I protein = ApoA-I protein expression in HepG2 cells (ELISA of conditioned media); type: cell-based, human; settings: 7.5 μM; for ApoA-I content in the medium (ELISA): 6 and 24 hours, vs untreated cells and cells treated with solvent; for time after addition of compound at which ApoA-I levels in the medium start to increase: time course 0, 6, 24 hours
Protocol: This study confirmed that compounds of the invention have an effect on ApoA-I protein secretion in HepG2 (liver) cells by measuring whether stimulation of transcriptional activity of the endogenous ApoA-I promoter in the HepG2 cells increased the abundance and secretion of ApoA-I protein.
The HepG2 cell line was obtained from the ATCC and cultured in MEM media supplemented with 10% FBS (Gibco), with 1 mM sodium pyruvate, 0.1 mM MEM non-essential amino acid, 2 mM L-glutamine, 100 U/ml penicillin, 100 μg/ml streptomycin and 5 μg/ml plasmocin. Cells were maintained at 37° C. in an atmosphere of 5% CO2 Cells were grown to 85% confluency prior to initiating the experiment.
Cells were plated and allowed to adhere overnight in a phenol red-free DMEM containing 10% of Charcoal/Dextran treated FBS (Hyclone), with 1 mM sodium pyruvate, 0.1 mM MEM non-essential amino acid, 2 mM L-glutamine, 100 U/ml penicillin, 100 μg/ml streptomycin and 5 μg/ml plasmocin. The medium was removed, and cells were washed in 1×PBS. Cells were then starved in phenol red-free DMEM (serum free) for a period of 24 hours. Cells were then mock treated (untreated, DMSO), or treated with compound of the invention diluted in phenol red-free DMEM (serum free) media at a concentration of 7.5 μM. Cells and media were harvested at 0, 6 and 24 hours following compound treatment.
Medium was removed from cells at the desired times and applied to a solid phase capture sandwich in an ELISA assay according to manufacturer's instructions (Total human Apolipoprotein ELISA Assay-Alercheck).

human ApoA-I promoter [5] = settings: Caco-2 cells, reported by Wong (US 20040033480); cited from earlier work
human ApoA-I promoter [6] = settings: Caco-2 cells, reported by Wong; cited from earlier work
[7] = subjects with low HDL-C; Rubins et al. 1999; cited from earlier work
[8] = following oral administration; Gugler et al. 1975; cited from earlier work

solubility at 3 h [3]: 5.04 µM (≈ 1.2 µg/mL)
Papp (Caco-2 permeability; Caco-2): 4.31 ×10⁻⁶ cm/s
SMILES: O=c1cc(-c2ccc(O)cc2)oc2ccccc12 [4′-hydroxyflavone, reference compound]
exposure time of maximal stimulation of ApoA-I promoter activity (human ApoA-I promoter [1]): 48 h
ApoA-I Promoter Induction (human ApoA-I promoter [2]): increased
plasma ApoA-I, net % change over vehicle (hApoA-I transgenic mice; Experiment A, 10 mg/kg BID oral gavage, 14 days, 0.5% methylcellulose/1% Tween 80): 32.44%
HDL cholesterol, net % change (hApoA-I transgenic mice; Experiment A, 10 mg/kg BID oral gavage, two weeks, NMR lipoprotein profile): 12.6%
liver weight gain normalized to body weight, compared to vehicle (hApoA-I transgenic mice; Experiment A, 10 mg/kg BID, day 15, male mice): minor changes
change in ApoA-I over vehicle (hApoA-I transgenic mice; Experiment B, 3 and 30 mpk BID oral gavage, 14 days): lack of statistically significant change
plasma ApoA-I, net % change over vehicle (hApoA-I transgenic mice; Experiment B, 10 mpk BID oral gavage, two weeks): 31.24%

% Transported Paap (Caco-2 cells): 1.5 ×10⁻⁶ cm/s
SMILES: O=c1cc(-c2ccc(O)cc2)oc2cc(O)cc(O)c12 [5,7-dihydroxy-2-(4-hydroxyphenyl)-4H-chomen-4-one] [reference compound]
ApoA-I Promoter Induction (human ApoA-I promoter [2]): increased

melting point: 241 to 242 °C
SMILES: Cc1c(-c2ccc(O)cc2)oc2ccccc2c1=O [Example 24, 2-(4-hydroxyphenyl)-3-methyl-4H-chromen-4-one]
ApoA-I content in the medium (ELISA) (ApoA-I protein): increased significantly
time after addition of compound at which ApoA-I levels in the medium start to increase (ApoA-I protein): ~6 h

melting point: 269 to 270 °C
SMILES: COc1ccc(-c2cc(=O)c3cccnc3o2)cc1 [Example 44, 2-(4-methoxyphenyl)-4H-pyrano[2,3-b]pyridine-4-one]
ApoA-I Promoter Induction (human ApoA-I promoter [4]): increased
ApoA-I content in the medium (ELISA) (ApoA-I protein): increased significantly
time after addition of compound at which ApoA-I levels in the medium start to increase (ApoA-I protein): ~6 h

Papp (Caco-2 permeability; Caco-2): 5.34 ×10⁻⁶ cm/s
melting point: 219 to 221 °C
SMILES: Oc1ccc(-c2cc3ncccc3cn2)cc1 [Example 57, 4-(1,6-naphthyridin-7-yl)phenol]
ApoA-I Promoter Induction (human ApoA-I promoter [4]): increased
ApoA-I content in the medium (ELISA) (ApoA-I protein): increased significantly
time after addition of compound at which ApoA-I levels in the medium start to increase (ApoA-I protein): ~6 h
change in vivo at 10 mg/kg (hApoA-I transgenic mice; Mus musculus, po, 336 h, Table 6 fourth group, 10 mg/kg BID 14 days, relative to pretreatment, Control 3 1.11, read-out: ApoA-I (% change)): 9.49%

Further lines, the molecule ahead of its results:

SMILES: O=c1cc(-c2ccc(O)cc2)oc2cc(O)cc(O)c12 [5,7-Dihydroxy-2-(4-hydroxy-phenyl)-chromen-4-one, reference compound]
ApoA-I Promoter Induction (human ApoA-I promoter [4]): increased
exposure time of maximal stimulation of ApoA-I promoter activity (human ApoA-I promoter [1]): 48 h

SMILES: Oc1ccc(/C=C/c2cc(O)cc(O)c2)cc1 [Resveratrol, resveratrol, reference compound]
ApoA-I Promoter Induction (human ApoA-I promoter [4]): increased
Papp (Caco-2 permeability; in vitro Caco-2 intestinal transport model, read-out: % Transported Paap): 3.34 ×10⁻⁶ cm/s
% Transported Paap (Caco-2 cells): 3.34 ×10⁻⁶ cm/s
increase of ApoA-I promoter activity over untreated control (human ApoA-I promoter [5]): 2.5 times
exposure time of maximal stimulation of ApoA-I promoter activity (human ApoA-I promoter [6]): 16 h

SMILES: Cc1ccc(C)c(OCCCC(C)(C)C(=O)O)c1 [gemfibrozil]
increase in the HDL-C level [7]: 6%
reduction of the CHD risk [7]: 22%

SMILES: O=c1c(O)c(-c2ccc(O)c(O)c2)oc2cc(O)cc(O)c12 [quercetin]
intestinal absorption [8]: less than 1%
